Patent publication US8192962B2, “Processes for detecting toxic substances” (Daikin Industries, Ltd., priority 2001, dated 2012)

System: Metabolism protein genes
Assay: DNA chip mRNA expression in yeast, metabolism protein genes (Table 7)
Type: cell-based, Saccharomyces cerevisiae S288C
Procedure, shortened: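 Measured as treated-to-untreated fluorescence ratio on a full-genome yeast DNA chip. Cells (S288C, YPD, 25° C.) were exposed in log phase for two hours to one chemical, dosed to curb growth without killing.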

manganese ethylenebis(dithiocarbamate) [(8)]
1.9: level of expressed mRNA in the presence/in the absence of chemical substance (yeast gene YJL216C)
0.8: level of expressed mRNA in the presence/in the absence of chemical substance (yeast gene YCR010C) | The level of expressed mRNA in the presence of chemical substance/The level of expressed mRNA in the absence of chemical substance (yeast gene YCR048W) | The level of expressed mRNA in the presence of chemical substance/The level of expressed mRNA in the absence of chemical substance (yeast gene YER026C) | The level of expressed mRNA in the presence of chemical substance/The level of expressed mRNA in the absence of chemical substance (yeast gene YER178W) | level of expressed mRNA in the presence/in the absence of chemical substance (yeast gene YFL011W) | level of expressed mRNA in the presence/in the absence of chemical substance (yeast gene YGL012W) | The level of expressed mRNA in the presence of chemical substance/The level of expressed mRNA in the absence of chemical substance (yeast gene YGL248W) | level of expressed mRNA in the presence/in the absence of chemical substance (yeast gene YHR025W) | level of expressed mRNA in the presence/in the absence of chemical substance (yeast gene YHR123W) | level of expressed mRNA in the presence/in the absence of chemical substance (yeast gene YJR077C)
0.7: The level of expressed mRNA in the presence of chemical substance/The level of expressed mRNA in the absence of chemical substance (yeast gene YAL012W) | The level of expressed mRNA in the presence of chemical substance/The level of expressed mRNA in the absence of chemical substance (yeast gene YBR029C) | The level of expressed mRNA in the presence of chemical substance/The level of expressed mRNA in the absence of chemical substance (yeast gene YDR019C) | level of expressed mRNA in the presence/in the absence of chemical substance (yeast gene YDR408C) | The level of expressed mRNA in the presence of chemical substance/The level of expressed mRNA in the absence of chemical substance (yeast gene YFL031W) | The level of expressed mRNA in the presence of chemical substance/The level of expressed mRNA in the absence of chemical substance (yeast gene YGL126W) | level of expressed mRNA in the presence/in the absence of chemical substance (yeast gene YGR191W) | The level of expressed mRNA in the presence of chemical substance/The level of expressed mRNA in the absence of chemical substance (yeast gene YJL172W) | level of expressed mRNA in the presence/in the absence of chemical substance (yeast gene YJR143C)
1.4: level of expressed mRNA in the presence/in the absence of chemical substance (yeast gene YDR400W) | The level of expressed mRNA in the presence of chemical substance/The level of expressed mRNA in the absence of chemical substance (yeast gene YGR037C)
1.2: level of expressed mRNA in the presence/in the absence of chemical substance (yeast gene YDR345C) | level of expressed mRNA in the presence/in the absence of chemical substance (yeast gene YGL205W) | The level of expressed mRNA in the presence of chemical substance/The level of expressed mRNA in the absence of chemical substance (yeast gene YGR194C) | The level of expressed mRNA in the presence of chemical substance/The level of expressed mRNA in the absence of chemical substance (yeast gene YHR174W)
2.2: The level of expressed mRNA in the presence of chemical substance/The level of expressed mRNA in the absence of chemical substance (yeast gene YGR256W)
0.5: The level of expressed mRNA in the presence of chemical substance/The level of expressed mRNA in the absence of chemical substance (yeast gene YBR023C)
0.6: The level of expressed mRNA in the presence of chemical substance/The level of expressed mRNA in the absence of chemical substance (yeast gene YBR222C) | The level of expressed mRNA in the presence of chemical substance/The level of expressed mRNA in the absence of chemical substance (yeast gene YDR497C) | level of expressed mRNA in the presence/in the absence of chemical substance (yeast gene YEL063C) | level of expressed mRNA in the presence/in the absence of chemical substance (yeast gene YER081W) | level of expressed mRNA in the presence/in the absence of chemical substance (yeast gene YER120W) | level of expressed mRNA in the presence/in the absence of chemical substance (yeast gene YIL006W) | The level of expressed mRNA in the presence of chemical substance/The level of expressed mRNA in the absence of chemical substance (yeast gene YIL154C) | The level of expressed mRNA in the presence of chemical substance/The level of expressed mRNA in the absence of chemical substance (yeast gene YJR148W)
1.0: level of expressed mRNA in the presence/in the absence of chemical substance (yeast gene YBR020W) | The level of expressed mRNA in the presence of chemical substance/The level of expressed mRNA in the absence of chemical substance (yeast gene YBR183W) | The level of expressed mRNA in the presence of chemical substance/The level of expressed mRNA in the absence of chemical substance (yeast gene YCR098C) | level of expressed mRNA in the presence/in the absence of chemical substance (yeast gene YDR483W) | The level of expressed mRNA in the presence of chemical substance/The level of expressed mRNA in the absence of chemical substance (yeast gene YER096W) | The level of expressed mRNA in the presence of chemical substance/The level of expressed mRNA in the absence of chemical substance (yeast gene YFR047C) | level of expressed mRNA in the presence/in the absence of chemical substance (yeast gene YGL115W) | level of expressed mRNA in the presence/in the absence of chemical substance (yeast gene YGR096W) | The level of expressed mRNA in the presence of chemical substance/The level of expressed mRNA in the absence of chemical substance (yeast gene YGR282C) | level of expressed mRNA in the presence/in the absence of chemical substance (yeast gene YGR288W) | The level of expressed mRNA in the presence of chemical substance/The level of expressed mRNA in the absence of chemical substance (yeast gene YIL155C) | The level of expressed mRNA in the presence of chemical substance/The level of expressed mRNA in the absence of chemical substance (yeast gene YIR036C) | The level of expressed mRNA in the presence of chemical substance/The level of expressed mRNA in the absence of chemical substance (yeast gene YJL099W) | level of expressed mRNA in the presence/in the absence of chemical substance (yeast gene YJL121C)
2.3: The level of expressed mRNA in the presence of chemical substance/The level of expressed mRNA in the absence of chemical substance (yeast gene YBR256C)
1.8: The level of expressed mRNA in the presence of chemical substance/The level of expressed mRNA in the absence of chemical substance (yeast gene YJL031C)
18.5: The level of expressed mRNA in the presence of chemical substance/The level of expressed mRNA in the absence of chemical substance (yeast gene YFL056C)
0.4: The level of expressed mRNA in the presence of chemical substance/The level of expressed mRNA in the absence of chemical substance (yeast gene YGL022W) | level of expressed mRNA in the presence/in the absence of chemical substance (yeast gene YGR204W) | The level of expressed mRNA in the presence of chemical substance/The level of expressed mRNA in the absence of chemical substance (yeast gene YHR137W)
3.4: The level of expressed mRNA in the presence of chemical substance/The level of expressed mRNA in the absence of chemical substance (yeast gene YFL014W)
2.4: The level of expressed mRNA in the presence of chemical substance/The level of expressed mRNA in the absence of chemical substance (yeast gene YCL064C)
1.3: level of expressed mRNA in the presence/in the absence of chemical substance (yeast gene YBR011C) | level of expressed mRNA in the presence/in the absence of chemical substance (yeast gene YDR050C) | level of expressed mRNA in the presence/in the absence of chemical substance (yeast gene YDR073W) | level of expressed mRNA in the presence/in the absence of chemical substance (yeast gene YDR123C) | The level of expressed mRNA in the presence of chemical substance/The level of expressed mRNA in the absence of chemical substance (yeast gene YDR516C) | The level of expressed mRNA in the presence of chemical substance/The level of expressed mRNA in the absence of chemical substance (yeast gene YER053C) | The level of expressed mRNA in the presence of chemical substance/The level of expressed mRNA in the absence of chemical substance (yeast gene YHR111W) | The level of expressed mRNA in the presence of chemical substance/The level of expressed mRNA in the absence of chemical substance (yeast gene YHR176W) | level of expressed mRNA in the presence/in the absence of chemical substance (yeast gene YHR210C) | The level of expressed mRNA in the presence of chemical substance/The level of expressed mRNA in the absence of chemical substance (yeast gene YIL107C) | The level of expressed mRNA in the presence of chemical substance/The level of expressed mRNA in the absence of chemical substance (yeast gene YJL088W)
0.9: level of expressed mRNA in the presence/in the absence of chemical substance (yeast gene YBR003W) | level of expressed mRNA in the presence/in the absence of chemical substance (yeast gene YCR034W) | level of expressed mRNA in the presence/in the absence of chemical substance (yeast gene YDR178W) | level of expressed mRNA in the presence/in the absence of chemical substance (yeast gene YDR284C) | The level of expressed mRNA in the presence of chemical substance/The level of expressed mRNA in the absence of chemical substance (yeast gene YDR502C)
1.7: level of expressed mRNA in the presence/in the absence of chemical substance (yeast gene YDR277C) | The level of expressed mRNA in the presence of chemical substance/The level of expressed mRNA in the absence of chemical substance (yeast gene YIR034C)
1.6: The level of expressed mRNA in the presence of chemical substance/The level of expressed mRNA in the absence of chemical substance (yeast gene YFL030W) | The level of expressed mRNA in the presence of chemical substance/The level of expressed mRNA in the absence of chemical substance (yeast gene YJR137C)
1.1: The level of expressed mRNA in the presence of chemical substance/The level of expressed mRNA in the absence of chemical substance (yeast gene YAL038W) | The level of expressed mRNA in the presence of chemical substance/The level of expressed mRNA in the absence of chemical substance (yeast gene YCL009C) | level of expressed mRNA in the presence/in the absence of chemical substance (yeast gene YER015W) | The level of expressed mRNA in the presence of chemical substance/The level of expressed mRNA in the absence of chemical substance (yeast gene YGL209W) | The level of expressed mRNA in the presence of chemical substance/The level of expressed mRNA in the absence of chemical substance (yeast gene YGR055W) | The level of expressed mRNA in the presence of chemical substance/The level of expressed mRNA in the absence of chemical substance (yeast gene YIL045W) | The level of expressed mRNA in the presence of chemical substance/The level of expressed mRNA in the absence of chemical substance (yeast gene YJL068C)
18.0: The level of expressed mRNA in the presence of chemical substance/The level of expressed mRNA in the absence of chemical substance (yeast gene YFL057C)
1.5: The level of expressed mRNA in the presence of chemical substance/The level of expressed mRNA in the absence of chemical substance (yeast gene YER069W) | level of expressed mRNA in the presence/in the absence of chemical substance (yeast gene YJL167W) | The level of expressed mRNA in the presence of chemical substance/The level of expressed mRNA in the absence of chemical substance (yeast gene YJL219W)
0.2: The level of expressed mRNA in the presence of chemical substance/The level of expressed mRNA in the absence of chemical substance (yeast gene YDR380W)
